According to ChEMBL document CHEMBL1125639, “Synthesis and resolution of (+-)-7-chloro-8-hydroxy-1-(3'-iodophenyl)-3-methyl-2,3,4,5-tetrahydro- 1H-3- benzazepine (TISCH): a high affinity and selective iodinated ligand for CNS D1 dopamine receptor” (J Med Chem, 1991):

Organism: Rattus norvegicus
Format: functional, Striatum, Membrane
Description: Inhibition constant of compound on R-(+)-125[I]-8 radioligand binding to rat striatal membranes

Ki: 1.07 nM
SMILES: CN1CCc2cc(Cl)c(O)cc2C(c2cccc(I)c2)C1 (racemic)
